In US20170368082A1, “FORMULATIONS OF BRINCIDOFOVIR” (priority 2016, published 2017):

Experiment: Tissue distribution by quantitative whole-body autoradiography (QWBA)
Format: in vivo, male Sprague Dawley and Long-Evans rats
Conditions: for Concentration of radioactivity: SD rat, 15 mg/kg IV
Protocol: The study utilized 4 groups of male SD rats (albino), and 3 groups of male LE rats (pigmented); a total of 39 rats. All animals were obtained from Hilltop Lab Animals, Inc. (Scottdale, Pa.). […] Rats in Group 5 were administered a single 2-h IV infusion of [^14C]brincidofovir at a target dose of 2 mg/kg. […] Three dosing formulations (one for high dose IV, one for low dose IV, and one for PO dose) were prepared at QPS on the day of dosing. The IV formulation for Groups 1, 2, 3, and 4 contained a vehicle of 10 mM sodium phosphate buffer in 5% dextrose solution at pH 8.0(±0.1).
Each animal, at their respective termination time points, was euthanized for QWBA analysis immediately after blood collection. One rat per time point per Group was euthanized as listed below.
The blood samples were maintained on wet ice (approximately 4° C.) and then centrifuged to obtain plasma within 1 h of the blood collection time. Centrifuge settings were recorded in the study notebook. Duplicate aliquots of plasma (0.050 mL) were analyzed for radioactivity using direct counting by LSC, and residual plasma was stored at approximately −70° C. and was saved for possible future analysis under a separate study protocol. Residual red blood cells were discarded as radioactive waste.
The pinna, distal limbs, hair, and tail were removed from each frozen carcass and each frozen carcass was embedded in an aqueous suspension of approximately 2% (w/v) carboxymethylcellulose and frozen into a block. The blocks were stored at approximately −20° C. prior to sectioning. Each blocked carcass was mounted on the object stage of a cryomicrotome (Leica CM3600 Cryomacrocut, Nussloch, Germany and Vibratome 9800, St. Louis, Mo.) maintained at approximately −20° C. and internal standards (3), which were plasma fortified with [^14C]-glucose at one concentration (approximately 0.05 μCi/mL), were placed into the frozen blocks, prior to sectioning, and were used for section thickness quality control. A number of whole-body sections (approximately 40 μm thick) were taken in the sagittal plane at various levels of interest using a whole-body cryomicrotome set at −20° C. Sagittal sections (20-50 μm thick) of frozen carcasses were exposed to phosphor imaging plates. Regions of images in tissues were converted to concentrations using standards. All of the major tissues, organs, and biological fluids were represented.
Tissue concentration data was determined for the following tissues and/or contents: adipose (brown and white), adrenal gland, bile (in duct), blood (cardiac), bone, bone marrow, brain (cerebrum, cerebellum, medulla), cecum (and contents), large intestine (and contents), epididymis, esophagus, eye (uvea and lens), Harderian gland, heart, kidney (cortex and medulla), liver, lung, lymph node, pancreas, pituitary gland, prostate gland, salivary gland, seminal vesicles, skeletal muscle, skin (pigmented and non-pigmented), small intestine (and contents), stomach (gastric mucosa and contents), spleen, spinal cord, testis, thymus, thyroid, and urinary bladder (and contents).
The imaging plate and sections were placed in light-tight exposure cassettes, in a copper-lined lead safe, for a 4-day exposure at room temperature. […] Quantification was performed by image densitometry using MCD image analysis software (v. 7.0, Interfocus Imaging Ltd) and a standard curve constructed from the integrated response [i.e., Molecular Dynamics Counts per square millimeter (MDC/mm^2)] and the nominal concentrations of the ^14C-calibration standards. The concentrations of radioactivity were expressed as the μg equivalents of [^14C]brincidofovir per gram sample (μg equiv/g). A lower limit of quantification (LLOQ) was applied to the data (See section 6.7.4).
Tissue concentrations that fell below the LLOQ were identified as being below the quantification limit (BQL). Tissue areas that were not visualized on autoradiographic images were identified as no sample (NS) and reported as BQL.

Question: Which results are given for `CCCCCCCCCCCCCCCCOCCCOP(=O)(O)CO[C@H](CO)Cn1ccc(N)nc1=O` [[^14C]brincidofovir]?
Answer: Concentration at Tmax: kidney medulla (Group 6 SD, 15 mg/kg PO): 7.9 μg equiv/g; Concentration at Tmax: liver (Group 6 SD, 15 mg/kg PO): 20.6 μg equiv/g; Concentration at Tmax: small intestine (Group 6 SD, 15 mg/kg PO): 236.3 μg equiv/g; Concentration at Tmax: stomach (Group 6 SD, 15 mg/kg PO): 11.2 μg equiv/g; Concentration at Tmax: urinary bladder (Group 6 SD, 15 mg/kg PO): 17.3 μg equiv/g; Residual concentration in small intestine at 168 h (Group 6 SD, 15 mg/kg PO): 2.7 μg equiv/g; Highest observed concentration in blood (Group 6 SD, 15 mg/kg PO, 2 h): 0.200 μg equiv/g; Urinary bladder contents (Group 7, 8 h): 110.9 μg equiv/g; Concentration of radioactivity, Eye (lens) (Group 7 LE pigmented rats, oral 15 mg/kg, c2-c11 = 0.5, 1, 2, 4, 8, 24, 72, 96, 168, 840 h, LLOQ 0.034): BQL; Concentration at Tmax: cecum (Group 7 LE, 15 mg/kg PO): 7.6 μg equiv/g; Concentration at Tmax: kidney cortex (Group 7 LE, 15 mg/kg PO): 17.8 μg equiv/g; Concentration at Tmax: kidney medulla (Group 7 LE, 15 mg/kg PO): 9.1 μg equiv/g; Concentration at Tmax: large intestine (Group 7 LE, 15 mg/kg PO): 3.3 μg equiv/g; Concentration at Tmax: liver (Group 7 LE, 15 mg/kg PO): 36.1 μg equiv/g; Concentration at Tmax: small intestine (Group 7 LE, 15 mg/kg PO): 458.5 μg equiv/g; Concentration at Tmax: stomach (Group 7 LE, 15 mg/kg PO): 12.0 μg equiv/g; Concentration at Tmax: urinary bladder (Group 7 LE, 15 mg/kg PO): 3.7 μg equiv/g; Highest observed concentration in blood (Group 7 LE, 15 mg/kg PO, 8 h): 1.1 μg equiv/g; Concentration of radioactivity (Harderian Gland, 2 h): 2.081 μg equiv./g; Concentration of radioactivity (Harderian Gland, 24 h): 1.278 μg equiv./g; Concentration of radioactivity (Harderian Gland, 168 h): 0.954 μg equiv./g; Concentration of radioactivity (Heart, 2 h): 2.540 μg equiv./g; Concentration of radioactivity (Heart, 24 h): 0.408 μg equiv./g; Concentration of radioactivity (Heart, 168 h): 0.057 μg equiv./g; Radioactivity in brain and spinal cord relative to plasma concentration (IV administration): ~20%; Tissue to plasma ratios (T/P) in liver, kidney and small intestine (IV and oral): > 30; Small intestine tissue to plasma ratio (IV infusion, 15 mg/kg): 32; Concentration of radioactivity (Kidney Cortex, 2 h): 106.513 μg equiv./g; Concentration of radioactivity (Kidney Cortex, 24 h): 32.109 μg equiv./g; Concentration of radioactivity (Kidney Cortex, 168 h): 0.474 μg equiv./g; Concentration of radioactivity (Kidney Medulla, 2 h): 33.444 μg equiv./g; Concentration of radioactivity (Kidney Medulla, 24 h): 4.271 μg equiv./g; Concentration of radioactivity (Kidney Medulla, 168 h): 0.186 μg equiv./g; Concentration of radioactivity (Liver, 2 h): 229.371 μg equiv./g; Concentration of radioactivity (Liver, 24 h): 13.907 μg equiv./g; Concentration of radioactivity (Liver, 168 h): 0.453 μg equiv./g; Concentration of radioactivity (Lung, 2 h): 5.675 μg equiv./g; Concentration of radioactivity (Lung, 24 h): 1.128 μg equiv./g; Concentration of radioactivity (Lung, 168 h): 0.296 μg equiv./g; Concentration of radioactivity (Lymph Node, 2 h): 4.055 μg equiv./g; Concentration of radioactivity (Lymph Node, 24 h): 1.004 μg equiv./g; Concentration of radioactivity (Lymph Node, 168 h): 0.247 μg equiv./g; Concentration of radioactivity (Pancreas, 2 h): 1.974 μg equiv./g; Concentration of radioactivity (Pancreas, 24 h): 0.557 μg equiv./g; Concentration of radioactivity (Pancreas, 168 h): BQL (BQL = Value is below the LLOQ); Concentration of radioactivity (Pituitary Gland, 2 h): 2.793 μg equiv./g; Concentration of radioactivity (Pituitary Gland, 24 h): 1.021 μg equiv./g; Concentration of radioactivity (Pituitary Gland, 168 h): 0.257 μg equiv./g; Concentration of radioactivity (Prostate Gland, 2 h): 2.033 μg equiv./g; Concentration of radioactivity (Prostate Gland, 24 h): 0.254 μg equiv./g; Concentration of radioactivity (Prostate Gland, 168 h): 0.051 μg equiv./g; Concentration of radioactivity (Salivary Gland, 2 h): 2.049 μg equiv./g; Concentration of radioactivity (Salivary Gland, 24 h): 0.395 μg equiv./g; Concentration of radioactivity (Salivary Gland, 168 h): 0.047 μg equiv./g; Concentration of radioactivity (Seminal Vesicles, 2 h): 1.809 μg equiv./g; Concentration of radioactivity (Seminal Vesicles, 24 h): 1.636 μg equiv./g; Concentration of radioactivity (Seminal Vesicles, 168 h): 0.817 μg equiv./g; Concentration of radioactivity (Skeletal Muscle, 2 h): 0.868 μg equiv./g; Concentration of radioactivity (Skeletal Muscle, 24 h): 0.099 μg equiv./g; Concentration of radioactivity (Skeletal Muscle, 168 h): BQL (BQL = Value is below the LLOQ); Concentration of radioactivity (Skin (non-pigmented), 2 h): 2.277 μg equiv./g; Concentration of radioactivity (Skin (non-pigmented), 24 h): 0.602 μg equiv./g; Concentration of radioactivity (Skin (non-pigmented), 168 h): 0.121 μg equiv./g; Concentration of radioactivity (Spinal Cord, 2 h): 0.437 μg equiv./g; Concentration of radioactivity (Spinal Cord, 24 h): 0.079 μg equiv./g; Concentration of radioactivity (Spinal Cord, 168 h): BQL (BQL = Value is below the LLOQ); Concentration of radioactivity (Spleen, 2 h): 4.536 μg equiv./g; Concentration of radioactivity (Spleen, 24 h): 2.244 μg equiv./g; Concentration of radioactivity (Spleen, 168 h): 0.694 μg equiv./g; Concentration of radioactivity (Testis, 2 h): 1.647 μg equiv./g; Concentration of radioactivity (Testis, 24 h): 0.436 μg equiv./g; Concentration of radioactivity (Testis, 168 h): 0.078 μg equiv./g; Concentration of radioactivity (Thymus, 2 h): 2.373 μg equiv./g; Concentration of radioactivity (Thymus, 24 h): 0.556 μg equiv./g; Concentration of radioactivity (Thymus, 168 h): 0.105 μg equiv./g; Concentration of radioactivity (Thyroid, 2 h): 2.751 μg equiv./g; Concentration of radioactivity (Thyroid, 24 h): 0.791 μg equiv./g; Concentration of radioactivity (Thyroid, 168 h): 0.239 μg equiv./g; Concentration of radioactivity (Urinary Bladder (contents), 2 h): 47.034 μg equiv./g; Concentration of radioactivity (Urinary Bladder (contents), 24 h): 21.237 μg equiv./g; Concentration of radioactivity (Urinary Bladder (contents), 168 h): 0.121 μg equiv./g; Concentration of radioactivity (Urinary Bladder, 2 h): 35.978 μg equiv./g; Concentration of radioactivity (Urinary Bladder, 24 h): 2.264 μg equiv./g; Concentration of radioactivity (Urinary Bladder, 168 h): 0.132 μg equiv./g; Radioactivity in brain and spinal cord relative to plasma concentration (oral administration): ~5%; Small intestinal tissue to plasma ratio (T/P) (oral administration, 15 mg/kg): 428; Residual concentration in small intestine at 168 h (pigmented LE rats, 15 mg/kg PO): 5.9 μg equiv/g
